Experimental data reported in patent US9708336B2, “Metallo-beta-lactamase inhibitors” (priority 2014, dated 2017).
Like-named read-outs stand apart in the source and are kept apart here.

Columns and labels:
VIM-1 = VIM-1 (Pseudomonas aeruginosa (strain ATCC 15692 / DSM 22644 / CIP 104116 / JCM 14847 / LMG 12228 / 1C / PRS 101 / PAO1), UniProt A0A0F7KYQ8); assay: Enzyme activity: determination of IC50, fluorescence assay with CCF2-FA substrate (VIM-1); format: biochemical
[1] = test system: Escherichia coli expressing NDM-1 (CLB30016); assay: Antibiotic potentiation activity: synergistic concentration (MITC95) with imipenem, OD600 growth; format: cell-based; settings: for Escherichia coli expressing NDM-1 (CLB 30016) MITC95: concentration giving 95% inhibition of bacterial growth
Experimental: (§1) Antibiotic Potentiation Activity: Determination of Synergistic Concentration
(§2) The bacterial strains tested included the clinical strains Escherichia coli expressing NDM-1 (CLB30005, CLB30016), Serratia marcescens expressing IMP-1 (CL5741), and Klebsiella pneumoniae expressing VIM-1 (IHMA599644) Inhibitor activity was measured in the presence and absence of imipenem in a 384-well microplate.
(§3) The clinical strains CLB30016, CL5741 and IHMA599644 were grown on trypticase soy agar containing 5% sheep's blood. The clinical strain CLB30005 was grown on Mueller Hinton broth agar containing 8 ug/ml imipenem. The bacteria on agar plates were incubated at 35° C. with humidity overnight. The following day, individual colonies from each clinical strain were picked and resuspended in 5 ml saline to attain an OD600 of 0.14, 0.11, 0.15 and 0.13, for CLB30005, CLB30016, CL5741 and IHMA599644, respectively. These were further diluted 1:100 into 1.1×CAMHB and used to inoculate the test wells as described below.
(§4) Imipenem in 10 mM 3-(N-morpholino)propanesulfonic acid (MOPS, pH 7) was stored in single use aliquots at −80° C. […] On the day of the assay, 4 μl of antibiotic was added to 45 ul of bacteria followed by 1 μl of test compound and mixed by pipetting and with an orbital shaker. The concentration of antibiotic used in the assay was 4 μg/ml, or optionally 1 μg/ml. Microplates were covered and incubated at 35° C. for 22 hours to 24 hours. At the end of the incubation, absorbance was determined using a spectrophotometer.

[2] = test system: Klebsiella pneumoniae expressing VIM-1 (IHMA599644); assay: as above; format: cell-based; settings: for Klebsiella pneumoniae expressing VIM-1 (IHMA 599644) MITC95: concentration giving 95% inhibition of bacterial growth
Experimental: as §1, §2, §3, §4

[3] = test system: Serratia marcescens expressing IMP-1 (CL5741); assay: as above; format: cell-based; settings: for Serratia marcescens expressing IMP-1 (CL5741) MITC95: concentration giving 95% inhibition of bacterial growth
Experimental: as §1, §2, §3, §4

NDM-1 = NDM-1 (Klebsiella pneumoniae, UniProt C7C422); assay: biochemical; format: biochemical; settings: read-out: NDM-1 IC50
Chain of NDM-1 (C7C422 whole entry, looked up, species assumed): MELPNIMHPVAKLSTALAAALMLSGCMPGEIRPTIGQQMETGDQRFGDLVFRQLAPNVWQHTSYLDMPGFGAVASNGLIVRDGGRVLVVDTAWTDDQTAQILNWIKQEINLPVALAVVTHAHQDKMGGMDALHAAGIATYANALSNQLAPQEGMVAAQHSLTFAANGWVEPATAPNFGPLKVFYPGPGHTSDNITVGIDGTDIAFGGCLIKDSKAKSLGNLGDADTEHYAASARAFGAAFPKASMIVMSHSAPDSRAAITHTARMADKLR

IMP-1 = IMP-1 (Serratia marcescens, UniProt P52699); assay: biochemical; format: biochemical; settings: read-out: IMP-1 IC50
Chain of IMP-1 (P52699 whole entry, looked up): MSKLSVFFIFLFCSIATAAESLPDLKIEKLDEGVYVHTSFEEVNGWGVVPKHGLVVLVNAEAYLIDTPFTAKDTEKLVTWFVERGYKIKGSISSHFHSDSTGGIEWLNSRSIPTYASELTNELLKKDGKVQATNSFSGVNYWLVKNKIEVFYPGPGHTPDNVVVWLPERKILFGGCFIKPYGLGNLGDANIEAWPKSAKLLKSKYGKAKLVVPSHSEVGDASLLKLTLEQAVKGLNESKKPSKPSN

[4] = Escherichia coli expressing NDM-1 (CLB30016), 95% growth inhibition
[5] = Klebsiella pneumoniae expressing VIM-1 (IHMA599644), 95% growth inhibition
[6] = Serratia marcescens expressing IMP-1 (CL5741), 95% growth inhibition
[7] = VIM-1 enzyme, CCF2-FA substrate, read-out: VIM-1 IC50
[8] = (CLB30016, NDM-1), 95% growth inhibition
[9] = Klebsiella pneumoniae IHMA599644 (VIM-1), 95% growth inhibition
[10] = Serratia marcescens CL5741 (IMP-1), 95% growth inhibition
[11] = NDM-1 enzyme, CCF2-FA substrate
[12] = IMP-1 enzyme, CCF2-FA substrate
[13] = fluorescence assay with CCF2-FA substrate
[14] = NDM-1 enzyme, CCF2-FA fluorescence assay
[15] = IMP-1 enzyme, CCF2-FA fluorescence assay

## NS(=O)(=O)c1c(CCC2CCNCC2)ccc(-c2ccnc3ccccc23)c1-c1nn[nH]n1 [Example 452, 6-(2-(piperidin-4-yl)ethyl)-3-(quinolin-4-yl)-2-(2H-tetrazol-5-yl)benzenesulfonamide]
VIM-1; VIM-1 enzyme, CCF2-FA fluorescence assay, read-out: VIM-1 IC50
  IC50: 1.98 nM
[1]; [4]
  Escherichia coli MITC95: 1.563 µM
[2]; [5]
  Klebsiella pneumoniae MITC95: 4.688 µM
[3]; [6]
  Serratia marcescens MITC95: 9.375 µM

## Cc1nc(N)ccc1-c1ccc(C(F)(F)F)c(S(N)(=O)=O)c1-c1nn[nH]n1 [Example 555, 3-(6-amino-2-methyl-3-pyridyl)-2-(2H-tetrazol-5-yl)-6-(trifluoromethyl)benzenesulfonamide]
VIM-1; [7]
  IC50: 0.177 nM
[1]; [8]
  Escherichia coli MITC95: 0.5859 µM
[2]; [9]
  Klebsiella pneumoniae MITC95: 3.125 µM
[3]; [10]
  Serratia marcescens MITC95: 6.25 µM

## Cn1ccnc1CN1CCC(c2ccc(-c3cccc(S(N)(=O)=O)c3-c3nnn[nH]3)cc2)CC1 [Example 621, 3-[4-[1-[(1-methylimidazol-2-yl)methyl]-4-piperidyl]phenyl]-2-(1H-tetrazol-5-yl)benzenesulfonamide]
VIM-1; [7]
  IC50: 508 nM
[1]; [8]
  Escherichia coli MITC95: 3.906 µM
[2]; [9]
  Klebsiella pneumoniae MITC95: >200 µM
[3]; [10]
  Serratia marcescens MITC95: 1.563 µM

## NS(=O)(=O)c1c(C(F)(F)F)ccc([C@H]2CC[C@H](NC3CC[C@H]4NCC[C@@H]34)CC2)c1-c1nnn[nH]1 (stereo partly drawn) [Example 692, 3-{4-[(3aR,6aR)-octahydrocyclopenta[b]pyrrol-4-ylamino]cyclohexyl}-2-(1H-tetrazol-5-yl)-6-(trifluoromethyl)benzene sulfonamide]
NDM-1; [11]
  IC50: 6.36 nM
IMP-1; [12]
  IC50: 19.8 nM
[1]; [8]
  Escherichia coli MITC95: 1.563 µM
[2]; [9]
  Klebsiella pneumoniae MITC95: 6.25 µM
[3]; [10]
  Serratia marcescens MITC95: 3.125 µM

## CS(=O)(=O)NC1CCC(c2cccc(S(N)(=O)=O)c2-c2nn[nH]n2)CC1 (stereo not shown) [Example 169, 3-(4-(methylsulfonamido)cyclohexyl)-2-(2H-tetrazol-5-yl)benzenesulfonamide]
VIM-1; VIM-1 IC50, fluorescence assay with CCF2-FA substrate
  IC50: 57.6 nM
[1]
  Escherichia coli expressing NDM-1 (CLB 30016) MITC95: 2.344 µM
[2]
  Klebsiella pneumoniae expressing VIM-1 (IHMA 599644) MITC95: 50 µM
[3]
  Serratia marcescens expressing IMP-1 (CL5741) MITC95: 3.125 µM

## Cn1cncc1CN1CCC(c2ccc(-c3cccc(S(N)(=O)=O)c3-c3nnn[nH]3)cc2)CC1 [Example 620, 3-[4-[1-[(3-methylimidazol-4-yl)methyl]-4-piperidyl]phenyl]-2-(1H-tetrazol-5-yl)benzenesulfonamide]
VIM-1; [7]
  IC50: 1030 nM
[1]; [8]
  Escherichia coli MITC95: 7.813 µM
[2]; [9]
  Klebsiella pneumoniae MITC95: >200 µM
[3]; [10]
  Serratia marcescens MITC95: 2.344 µM

## NS(=O)(=O)c1c(C(F)(F)F)ccc(N2CCN3C(=O)OCC3C2)c1-c1nnn[nH]1 (stereo not shown) [Example 667, 3-(3-oxotetrahydro[1,3]oxazolo[3,4-a]pyrazin-7(1H)-yl)-2-(1H-tetrazol-5-yl)-6-(trifluoromethyl)benzenesulfonamide]
NDM-1; [11]
  IC50: 19.7 nM
IMP-1; [12]
  IC50: 75 nM
[1]; [8]
  Escherichia coli MITC95: 3.125 µM
[2]; [9]
  Klebsiella pneumoniae MITC95: 9.375 µM
[3]; [10]
  Serratia marcescens MITC95: 2.344 µM

## NS(=O)(=O)c1nccc(NCc2ccccc2)c1-c1nnn[nH]1 [Example 235, 4-(benzylamino)-3-(1H-tetrazol-5-yl)pyridine-2-sulfonamide]
NDM-1; [13]
  IC50: 142 nM
IMP-1; [13]
  IC50: 3440 nM
[1]
  Escherichia coli expressing NDM-1 (CLB 30016) MITC95: 12.5 µM
[2]
  Klebsiella pneumoniae expressing VIM-1 (IHMA 599644) MITC95: >200 µM
[3]
  Serratia marcescens expressing IMP-1 (CL5741) MITC95: 200 µM

## NS(=O)(=O)c1c(CC2CCNCC2)ccc(-c2ccc(C3CCNC3)cc2)c1-c1nn[nH]n1 (stereo not shown) [Example 588, 4-(piperidin-4-ylmethyl)-4′-(pyrrolidin-3-yl)-2-(2H-tetrazol-5-yl)-[1,1′-biphenyl]-3-sulfonamide]
NDM-1; [11]
  IC50: 6.27 nM
IMP-1; [12]
  IC50: 28.8 nM
[1]; [8]
  Escherichia coli MITC95: 1.563 µM
[2]; [9]
  Klebsiella pneumoniae MITC95: 1.563 µM
[3]; [10]
  Serratia marcescens MITC95: 3.125 µM

## NS(=O)(=O)c1cccc(-c2nc(-c3ccncc3)cs2)c1-c1nnn[nH]1 [Example 407, 3-[4-(4-pyridyl)thiazol-2-yl]-2-(1H-tetrazol-5-yl)benzenesulfonamide]
NDM-1; [14]
  IC50: 25.8 nM
IMP-1; [15]
  IC50: 115 nM
[1]; [4]
  Escherichia coli MITC95: 3.125 µM
[2]; [5]
  Klebsiella pneumoniae MITC95: >200 µM
[3]; [6]
  Serratia marcescens MITC95: 3.125 µM

## CN1[C@@H]2CC[C@H]1CC(NCc1ccc(-c3cccc(S(N)(=O)=O)c3-c3nnn[nH]3)cc1)C2 (stereo partly drawn) [Example 366, 4′-({[(3-endo)-8-methyl-8-azabicyclo[3.2.1]oct-3-yl]amino}methyl)-2-(1H-tetrazol-5-yl)biphenyl-3-sulfonamide]
NDM-1; [14]
  IC50: 18.2 nM
IMP-1; [15]
  IC50: 257 nM
[1]; [4]
  Escherichia coli MITC95: 1.172 µM
[2]; [5]
  Klebsiella pneumoniae MITC95: 150 µM
[3]; [6]
  Serratia marcescens MITC95: 3.125 µM

## Nc1nc2cncc(-c3ccc(C(F)(F)F)c(S(N)(=O)=O)c3-c3nnn[nH]3)c2[nH]1 [Example 571, 3-(2-amino-1H-imidazo[4,5-c]pyridin-7-yl)-2-(1H-tetrazol-5-yl)-6-(trifluoromethyl)benzenesulfonamide]
NDM-1; [11]
  IC50: 1.71 nM
IMP-1; [12]
  IC50: 14.8 nM
[1]; [8]
  Escherichia coli MITC95: 0.7813 µM
[2]; [9]
  Klebsiella pneumoniae MITC95: 6.25 µM
[3]; [10]
  Serratia marcescens MITC95: 3.125 µM

## NS(=O)(=O)c1cccc(C2=CCS(=O)(=O)CC2)c1-c1nnn[nH]1 [Example 141, 3-(1,1-dioxido-3,6-dihydro-2H-thiopyran-4-yl)-2-(1H-tetrazol-5-yl)benzenesulfonamide]
NDM-1; [13]
  IC50: 61.5 nM
IMP-1; [13]
  IC50: 2340 nM
[1]
  Escherichia coli expressing NDM-1 (CLB 30016) MITC95: 0.7813 µM
[2]
  Klebsiella pneumoniae expressing VIM-1 (IHMA 599644) MITC95: 200 µM
[3]
  Serratia marcescens expressing IMP-1 (CL5741) MITC95: 37.5 µM

## NC1CCC(N2CC(c3ccc(-c4ccc(C(F)(F)F)c(S(N)(=O)=O)c4-c4nnn[nH]4)cc3)C2)CC1 (stereo not shown) [Example 809, 4′-[1-(4-aminocyclohexyl)azetidin-3-yl]-2-(1H-tetrazol-5-yl)-4-(trifluoromethyl)biphenyl-3-sulfonamide]
NDM-1; [13]
  IC50: 4.02 nM
IMP-1; [13]
  IC50: 11.3 nM
[1]; CLB30016 (NDM-1), 95% inhibition of bacterial growth
  Escherichia coli MITC95: 3.125 µM
[2]; IHMA599644 (VIM-1), 95% inhibition of bacterial growth
  Klebsiella pneumoniae MITC95: 50 µM
[3]; CL5741 (IMP-1), 95% inhibition of bacterial growth
  Serratia marcescens MITC95: 6.25 µM

## NS(=O)(=O)c1c(C(F)(F)F)ccc(-c2ccc(C3CCNCC3)cc2)c1-c1nn[nH]n1 [Example 269, 4′-(piperidin-4-yl)-2-(2H-tetrazol-5-yl)-4-(trifluoromethyl)-[1,1′-biphenyl]-3-sulfonamide]
NDM-1; [14]
  IC50: 1.21 nM
IMP-1; [15]
  IC50: 1.43 nM
[1]; [4]
  Escherichia coli MITC95: 0.7383 µM
[2]; [5]
  Klebsiella pneumoniae MITC95: 1.969 µM
[3]; [6]
  Serratia marcescens MITC95: 0.3125 µM

## CN1C2CCC1CC(NCc1ccc(-c3cccc(S(N)(=O)=O)c3-c3nnn[nH]3)cc1)C2 (stereo not shown) [Example 370, 4′-{[(8-methyl-8-azabicyclo[3.2.1]oct-3-yl)amino]methyl}-2-(1H-tetrazol-5-yl)biphenyl-3-sulfonamide]
NDM-1; [14]
  IC50: 7.35 nM
IMP-1; [15]
  IC50: 45.8 nM
[1]; [4]
  Escherichia coli MITC95: 1.563 µM
[2]; [5]
  Klebsiella pneumoniae MITC95: 200 µM
[3]; [6]
  Serratia marcescens MITC95: 1.563 µM

## NS(=O)(=O)c1cccc(-c2ccc3nonc3c2)c1-c1nnn[nH]1 [Example 130, 3-(benzo[c][1,2,5]oxadiazol-5-yl)-2-(1H-tetrazol-5-yl)benzenesulfonamide]
NDM-1; [13]
  IC50: 10.6 nM
IMP-1; [13]
  IC50: 267 nM
[1]
  Escherichia coli expressing NDM-1 (CLB 30016) MITC95: 1.172 µM
[2]
  Klebsiella pneumoniae expressing VIM-1 (IHMA 599644) MITC95: 37.5 µM
[3]
  Serratia marcescens expressing IMP-1 (CL5741) MITC95: 9.375 µM

## NS(=O)(=O)c1c(C(F)(F)F)ccc(-c2ccc3nccn3c2)c1-c1nnn[nH]1 [Example 484, 3-(Imidazo[1,2-a]pyridin-6-yl)-2-(1H-tetrazol-5-yl)-6-(trifluoromethyl)benzenesulfonamide]
NDM-1; [14]
  IC50: 1.22 nM
IMP-1; [15]
  IC50: 6.58 nM
[1]; [4]
  Escherichia coli MITC95: 0.25 µM
[2]; [5]
  Klebsiella pneumoniae MITC95: 1.708 µM
[3]; [6]
  Serratia marcescens MITC95: 0.3828 µM
